In brackets after ≈: the same amount, converted by molar mass. Where two headings read alike, the source gives them in different places.
Key:
S. aureus Tour = assay: In vitro antibacterial activity (MIC), standard dilution test; format: cell-based
Text: Isosensitest broth (Oxoid) and Todd-Hewitt broth (Difco) are used for growing staphylococci and streptococci, respectively. […]

[1] = system: S. epidermidis ATCC 12228; assay: as above; format: cell-based
Method: (§1) Isosensitest broth (Oxoid) and Todd-Hewitt broth (Difco) are used for growing staphylococci and streptococci, respectively. Broth cultures are diluted so that the final inoculum is about 10⁴ colony forming units/ml (CFU/ml).

S. faecalis ATCC 7080 = assay: as above; format: cell-based
Method: as §1

S. haemolyticus L 602 = assay: as above; format: cell-based
Method: as §1

S. pneumoniae UC41 = assay: as above; format: cell-based
Method: as §1

S. pyogenes C203 = assay: as above; format: cell-based
Method: as §1

E. coli SKF 12140 = assay: as above; format: cell-based
[2] = system: P. vulgaris X19H ATCC 881; assay: as above; format: cell-based
P. aeruginosa ISM = assay: as above; format: cell-based
S. pyogenes L 49 = assay: In vivo test in mice experimentally infected with S. pyogenes L 49 (ED50)
Method: The ED₅₀ values (mg/Kg) of representative compounds of the invention in vivo tests in mice experimentally infected with S. pyogenes L 49 and reported in Table V were carried out according to the procedure described by V. Arioli et al., Journal of Antibiotics 29, 511 (1976).

Acid-base titration = format: physicochemical; conditions: Methylcellosolve/H₂O, 4/1 (v/v); titrated with 0.01 N NaOH after adding 0.01 N HCl
[3] = S. aureus Tour + 30% bovine serum
[4] = S. haemolyticus L 602, no visible growth after 18-24 h at 37°C, inoculum about 10⁴ CFU/ml
[5] = Staphylococcus aureus, S. aureus Tour 10^4, read-out: MIC
[6] = Staphylococcus aureus, S. aureus Tour 10^6, read-out: MIC
[7] = Staphylococcus aureus, S. aureus Tour + 30% bovine serum, read-out: MIC
[8] = Staphylococcus epidermidis, ATCC12228, read-out: MIC
[9] = Enterococcus faecalis, ATCC7080, read-out: MIC
[10] = Staphylococcus haemolyticus, L602, S. haemolyticus L 602, no visible growth after 18-24 h at 37°C, inoculum about 10⁴ CFU/ml, read-out: MIC
[11] = Streptococcus pneumoniae, read-out: MIC
[12] = Streptococcus pyogenes, read-out: MIC
[13] = Escherichia coli, SKF12140, read-out: MIC
[14] = Proteus vulgaris, ATCC881, read-out: MIC
[15] = Pseudomonas aeruginosa, read-out: MIC
[16] = Streptococcus pyogenes, L49, sc, S. pyogenes L 49, s.c., read-out: ED50

“N¹⁵-(2-dimethylamino)ethyl teicoplanin [Compound 3]” gave an MIC (S. aureus Tour; S. aureus Tour 10^4) of 0.125 microgram/ml, an MIC (S. aureus Tour; S. aureus Tour 10^6) of 0.5 microgram/ml and an MIC (S. aureus Tour; [3]) of 0.5 microgram/ml. It also gave an MIC [1] of 0.125 microgram/ml, an MIC (S. faecalis ATCC 7080) of 0.125 microgram/ml and an MIC (S. haemolyticus L 602; [4]) of 2 microgram/ml. For the same compound, the MIC (S. pneumoniae UC41) was 0.125 microgram/ml, the MIC (S. pyogenes C203) was 0.125 microgram/ml and the MIC (E. coli SKF 12140) was over 128 microgram/ml. For the same compound, the MIC [2] was over 128 microgram/ml, the MIC (P. aeruginosa ISM) was over 128 microgram/ml and the ED50 (S. pyogenes L 49; S. pyogenes L 49, o.s.) was over 300 mg/kg. The ED50 (S. pyogenes L 49; S. pyogenes L 49, s.c.) was 0.41 mg/kg, the pK₁ (Acid-base titration) was 4.85 and the pK₂ (Acid-base titration) was 6.2. It also gave a pK₃ (Acid-base titration) of 8.45.
For “N¹⁵-(1-methyl-2-hydroxy)ethyl teicoplanin [Compound 6]”, the MIC (S. aureus Tour; S. aureus Tour 10^4) was 0.25 microgram/ml, the MIC (S. aureus Tour; S. aureus Tour 10^6) was 1 microgram/ml and the MIC (S. aureus Tour; [3]) was 2 microgram/ml. For the same compound, the MIC [1] was 0.5 microgram/ml, the MIC (S. faecalis ATCC 7080) was 0.12 microgram/ml and the MIC (S. haemolyticus L 602; [4]) was 1.6 microgram/ml. For the same compound, the MIC (S. pneumoniae UC41) was 0.25 microgram/ml, the MIC (S. pyogenes C203) was 0.12 microgram/ml and the MIC (E. coli SKF 12140) was over 128 microgram/ml. For the same compound, the MIC [2] was over 128 microgram/ml and the MIC (P. aeruginosa ISM) was over 128 microgram/ml.
With `CC(CO)NC1C(=O)NC2Cc3ccc(c(Cl)c3)Oc3cc4cc(c3O)Oc3ccc(cc3Cl)C(O)C3NC(=O)C(NC(=O)C4NC(=O)C(NC2=O)c2cc(O)cc(c2)Oc2cc1ccc2O)c1ccc(O)c(c1)-c1c(O)cc(O)cc1C(C(=O)O)NC3=O` (stereo not drawn) [Compound 7, N¹⁵-(1-methyl-2-hydroxy)ethyl teicoplanin aglycon] the MIC (S. aureus Tour; [5]) was 0.06 µg/mL (≈ 0.0477 µM), the MIC (S. aureus Tour; [6]) was 0.12 µg/mL (≈ 0.0955 µM) and the MIC (S. aureus Tour; [7]) was 1 µg/mL. It also gave an MIC [1, 8] of 0.06 µg/mL (≈ 0.0477 µM), an MIC (S. faecalis ATCC 7080; [9]) of 0.25 µg/mL (≈ 0.199 µM) and an MIC (S. haemolyticus L 602; [10]) of 0.5 µg/mL (≈ 0.398 µM). The MIC (S. pneumoniae UC41; [11]) was 0.12 µg/mL (≈ 0.0955 µM), the MIC (S. pyogenes C203; [12]) was 0.12 µg/mL (≈ 0.0955 µM) and the MIC (E. coli SKF 12140; [13]) was over 128 µg/mL. For the same compound, the MIC [2, 14] was over 128 µg/mL, the MIC (P. aeruginosa ISM; [15]) was over 128 µg/mL and the ED50 (S. pyogenes L 49; [16]) was 0.84 mg/kg.
“N¹⁵-(2,3-Dihydroxy)propyl teicoplanin [Compound 1]” showed an MIC (S. aureus Tour; S. aureus Tour 10^4) of 0.5 microgram/ml, an MIC (S. aureus Tour; S. aureus Tour 10^6) of 2 microgram/ml and an MIC (S. aureus Tour; [3]) of 2 microgram/ml. For the same compound, the MIC [1] was 0.25 microgram/ml, the MIC (S. faecalis ATCC 7080) was 0.12 microgram/ml and the MIC (S. haemolyticus L 602; [4]) was 32 microgram/ml. It also gave an MIC (S. pneumoniae UC41) of 0.25 microgram/ml, an MIC (S. pyogenes C203) of 0.06 microgram/ml and an MIC (E. coli SKF 12140) of over 128 microgram/ml. It also gave an MIC [2] of over 128 microgram/ml, an MIC (P. aeruginosa ISM) of over 128 microgram/ml and a pK₁ (Acid-base titration) of 4.7. For the same compound, the pK₂ (Acid-base titration) was 6.
With `CN(C)CCNC1C(=O)NC2Cc3ccc(c(Cl)c3)Oc3cc4cc(c3O)Oc3ccc(cc3Cl)C(O)C3NC(=O)C(NC(=O)C4NC(=O)C(NC2=O)c2cc(O)cc(c2)Oc2cc1ccc2O)c1ccc(O)c(c1)-c1c(O)cc(O)cc1C(C(=O)O)NC3=O` (stereo not drawn) [Compound 5, N¹⁵-(2-dimethylamino)ethyl teicoplanin aglycon] the MIC (S. aureus Tour; [5]) was 0.125 µg/mL (≈ 0.0984 µM), the MIC (S. aureus Tour; [6]) was 0.125 µg/mL (≈ 0.0984 µM) and the MIC (S. aureus Tour; [7]) was 1 µg/mL. For the same compound, the MIC [1, 8] was 0.06 µg/mL (≈ 0.0472 µM), the MIC (S. faecalis ATCC 7080; [9]) was 0.25 µg/mL (≈ 0.197 µM) and the MIC (S. haemolyticus L 602; Staphylococcus haemolyticus, L602) was 0.5 µg/mL (≈ 0.394 µM). The MIC (S. pneumoniae UC41; [11]) was 0.125 µg/mL (≈ 0.0984 µM), the MIC (S. pyogenes C203; [12]) was 0.25 µg/mL (≈ 0.197 µM) and the MIC (E. coli SKF 12140; [13]) was over 128 µg/mL. The MIC [2, 14] was over 128 µg/mL, the MIC (P. aeruginosa ISM; [15]) was over 128 µg/mL and the ED50 (S. pyogenes L 49; [16]) was 1.25 mg/kg. The pK₁ (Acid-base titration) was 4.75 and the pK₂ (Acid-base titration) was 6.5.
Work on “N¹⁵-(1-methyl-2-hydroxy)propyl) teicoplanin [Compound 2]” yielded an MIC (S. aureus Tour; S. aureus Tour 10^4) of 0.5 microgram/ml, an MIC (S. aureus Tour; S. aureus Tour 10^6) of 1 microgram/ml and an MIC (S. aureus Tour; [3]) of 2 microgram/ml. The MIC [1] was 0.25 microgram/ml, the MIC (S. faecalis ATCC 7080) was 0.12 microgram/ml and the MIC (S. haemolyticus L 602; [4]) was 16 microgram/ml. For the same compound, the MIC (S. pneumoniae UC41) was 0.25 microgram/ml, the MIC (S. pyogenes C203) was 0.06 microgram/ml and the MIC (E. coli SKF 12140) was over 128 microgram/ml. The MIC [2] was over 128 microgram/ml, the MIC (P. aeruginosa ISM) was over 128 microgram/ml and the pK₁ (Acid-base titration) was 5.05. It also gave a pK₂ (Acid-base titration) of 6.35.
For `CC(O)C(C)NC1C(=O)NC2Cc3ccc(c(Cl)c3)Oc3cc4cc(c3O)Oc3ccc(cc3Cl)C(O)C3NC(=O)C(NC(=O)C4NC(=O)C(NC2=O)c2cc(O)cc(c2)Oc2cc1ccc2O)c1ccc(O)c(c1)-c1c(O)cc(O)cc1C(C(=O)O)NC3=O` (stereo not drawn) [Compound 8, N¹⁵-(1-methyl-2-hydroxy)propyl teicoplanin aglycon], the MIC (S. aureus Tour; [5]) was 0.12 µg/mL (≈ 0.0944 µM), the MIC (S. aureus Tour; [6]) was 0.12 µg/mL (≈ 0.0944 µM) and the MIC (S. aureus Tour; [7]) was 2 µg/mL. For the same compound, the MIC [1, 8] was 0.06 µg/mL (≈ 0.0472 µM), the MIC (S. faecalis ATCC 7080; [9]) was 0.12 µg/mL (≈ 0.0944 µM) and the MIC (S. haemolyticus L 602; [10]) was 0.5 µg/mL (≈ 0.393 µM). It also gave an MIC (S. pneumoniae UC41; [11]) of 0.25 µg/mL (≈ 0.197 µM), an MIC (S. pyogenes C203; [12]) of 0.12 µg/mL (≈ 0.0944 µM) and an MIC (E. coli SKF 12140; [13]) of over 128 µg/mL. It also gave an MIC [2, 14] of over 128 µg/mL, an MIC (P. aeruginosa ISM; [15]) of over 128 µg/mL and an ED50 (S. pyogenes L 49; [16]) of 0.86 mg/kg.
With “N¹⁵-(2-methoxyethoxy)methyl teicoplanin [Compound 4]” the MIC (S. aureus Tour; S. aureus Tour 10^4) was 0.12 microgram/ml, the MIC (S. aureus Tour; S. aureus Tour 10^6) was 0.5 microgram/ml and the MIC (S. aureus Tour; [3]) was 1 microgram/ml. The MIC [1] was 0.125 microgram/ml, the MIC (S. faecalis ATCC 7080) was 0.125 microgram/ml and the MIC (S. haemolyticus L 602; [4]) was 8 microgram/ml. It also gave an MIC (S. pneumoniae UC41) of 0.125 microgram/ml, an MIC (S. pyogenes C203) of 0.06 microgram/ml and an MIC (E. coli SKF 12140) of over 128 microgram/ml. It also gave an MIC [2] of over 128 microgram/ml and an MIC (P. aeruginosa ISM) of over 128 microgram/ml.

— patent EP0351597A2, “"N15-alkyl and N15,N15-di-alkyl derivatives of teicoplanin antibiotics carrying functional groups on the alkyl side chain” (GRUPPO LEPETIT S.p.A., priority 1988, dated 1990)
